# According to patent publication US8975398B2, “NAMPT inhibitors” (AbbVie Inc., priority 2012, dated 2015):
# Experiments:
# PC3 cells = experiment: NAMPT Cell Proliferation Assay (Cell Titer Glo; also performed in the presence of 0.3 mM nicotinamide mononucleotide); assay type: cell-based; details: Homo sapiens, PC-3, 120 h, 5 days incubation, cell viability by Cell Titer Glo
# Experimental: NAMPT Cell Proliferation Assay
# PC3 cells were seeded in 96-well black plates (Corning #3904) at 500 cells/well in 90 μl of RPMI media containing 10% heat-inactivated FBS and incubated overnight at 37° C. and 5% CO2 to allow cells to attach to wells. The following day, test compounds were serially diluted in neat DMSO to 1000× final concentrations prior to dilution with RPMI media to 10× and 1% DMSO. Ten μL of the 10× compounds were then transferred to wells containing cells to produce a dose response of 10-fold dilutions from 10 μM to 1×10^−5 μM. Cells were incubated for 5 days at 37° C. and 5% CO2, then cell viability was measured using Cell Titer Glo reagent (Promega #G7571). Percent inhibition values were calculated and fitted to a sigmoidal dose response curves using Assay Explorer software to determine IC50s.
# [1] = target: NAMPT (human, recombinant, C-terminally His-tagged) (Homo sapiens, UniProt P43490); experiment: Time-Resolved Fluorescence Resonance Energy Transfer (TR-FRET) Binding Assay of NAMPT; details: 6.8 nM NAMPT, 200 nM probe, equilibrated 3 hours, absence of substrates
# NAMPT (human, recombinant, C-terminally His-tagged), sequence (P43490 whole entry): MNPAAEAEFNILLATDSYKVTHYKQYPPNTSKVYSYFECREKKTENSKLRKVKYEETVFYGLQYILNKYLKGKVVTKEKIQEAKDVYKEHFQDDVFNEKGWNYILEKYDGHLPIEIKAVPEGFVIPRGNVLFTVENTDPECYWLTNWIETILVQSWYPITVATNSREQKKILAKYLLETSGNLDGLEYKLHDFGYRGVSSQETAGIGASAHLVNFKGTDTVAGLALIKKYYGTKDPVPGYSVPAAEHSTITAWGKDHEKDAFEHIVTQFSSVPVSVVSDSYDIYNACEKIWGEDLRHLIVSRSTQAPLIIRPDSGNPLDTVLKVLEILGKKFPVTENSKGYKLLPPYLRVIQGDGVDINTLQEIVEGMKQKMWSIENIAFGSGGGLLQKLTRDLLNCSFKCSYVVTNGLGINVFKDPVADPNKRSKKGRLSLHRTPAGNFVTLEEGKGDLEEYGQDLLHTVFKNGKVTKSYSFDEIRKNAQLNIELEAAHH
# Procedure, shortened: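 Recombinant C-terminally His-tagged human NAMPT (6.8 nM) incubated 3 h at room temperature with 200 nM Oregon Green 488–labelled nicotinamide-competitive probe and 1 nM Tb-anti-His antibody in HEPES pH 7.5, 2% DMSO. TR-FRET ratio Em520/Em495 normalized to controls; IC50 from four-parameter logistic fit.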
# NAMPT = NAMPT (Homo sapiens, UniProt P43490); experiment: Time-Resolved Fluorescence Resonance Energy Transfer (TR-FRET) Binding Assay of NAMPT with PRPP; details: 2 nM NAMPT, 2 nM probe, 200 uM PRPP and 2.5 mM ATP, equilibrated 16 hours
# NAMPT, sequence (P43490 whole entry): as above
# Procedure, shortened: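 Final mix: 2 nM NAMPT, 2 nM probe, 1 nM Tb-anti-His antibody, 200 uM PRPP, 2.5 mM ATP, 2% DMSO in 1× assay buffer. Equilibrated 16 hours before TR-FRET read, allowing possible enzymatic modification of compounds.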
SMILES,IC50 (PC3 cells),IC50 [1],IC50 (NAMPT)
"CCCNC(=O)c1ccc(NC(=O)C2CN(c3cccnn3)C2)cc1 [Example 1008, N-[4-(propylcarbamoyl)phenyl]-1-(pyridazin-3-yl)azetidine-3-carboxamide]",299 nM,–,–
"O=C(Nc1cccc(F)c1)c1ccc(NC(=O)C2CN(c3cccnn3)C2)cc1 [Example 1007, N-{4-[(3-fluorophenyl)carbamoyl]phenyl}-1-(pyridazin-3-yl)azetidine-3-carboxamide]",56.7 nM,–,–
"COCCOCC(=O)N1CCC(Cc2ccc(NC(=O)C3CN(c4cccnn4)C3)cc2)CC1 [Example 945, N-[4-({1-[(2-methoxyethoxy)acetyl]piperidin-4-yl}methyl)phenyl]-1-(pyridazin-3-yl)azetidine-3-carboxamide]",4.51 nM,–,–
"CC(C)(C)C(=O)N1CCC(Oc2ccc(NC(=O)C3CN(c4cccnc4)C3)cc2)CC1 [Example 42, N-(4-{[1-(2,2-dimethylpropanoyl)piperidin-4-yl]oxy}phenyl)-1-(pyridin-3-yl)azetidine-3-carboxamide]",–,226 nM,2.39 nM
"CC(C)C(C)C(=O)N1CCC(Oc2ccc(NC(=O)C3CN(c4cccnc4)C3)cc2)CC1 (stereo not shown) [Example 70, N-(4-{[1-(2,3-dimethylbutanoyl)piperidin-4-yl]oxy}phenyl)-1-(pyridin-3-yl)azetidine-3-carboxamide]",–,35.7 nM,0.742 nM
"O=C(Nc1ccc(OC2CCN(C(=O)Cc3ccc(C(F)(F)F)cc3)CC2)cc1)C1CN(c2ccnnc2)C1 [Example 273, 1-(pyridazin-4-yl)-N-{4-[(1-{[4-(trifluoromethyl)phenyl]acetyl}piperidin-4-yl)oxy]phenyl}azetidine-3-carboxamide]",–,128 nM,42.1 nM
"O=C(Nc1ccc(OC2CCN(C(=O)CC(F)(F)F)CC2)cc1)C1CN(c2cccnc2)C1 [Example 55, 1-(pyridin-3-yl)-N-(4-{[1-(3,3,3-trifluoropropanoyl)piperidin-4-yl]oxy}phenyl)azetidine-3-carboxamide]",–,168 nM,2.22 nM
"O=C(Nc1ccc(OC2CCN(C(=O)C3CCCCC3)CC2)cc1)C1CN(c2cccnc2)C1 [Example 49, N-(4-{[1-(cyclohexylcarbonyl)piperidin-4-yl]oxy}phenyl)-1-(pyridin-3-yl)azetidine-3-carboxamide]",–,66.1 nM,1.02 nM
"Cc1ccncc1N1CC(C(=O)Nc2ccc(OC3CCN(C(=O)CC4CCOCC4)CC3)cc2)C1 [Example 5, 1-(4-methylpyridin-3-yl)-N-(4-{[1-(tetrahydro-2H-pyran-4-ylacetyl)piperidin-4-yl]oxy}phenyl)azetidine-3-carboxamide]",–,107 nM,10.2 nM
"O=C(Nc1ccc(OC2CCN(C(=O)[C@@H]3CCCO3)CC2)cc1)C1CN(c2cccnc2)C1 [Example 33, 1-(pyridin-3-yl)-N-[4-({1-[(2S)-tetrahydrofuran-2-ylcarbonyl]piperidin-4-yl}oxy)phenyl]azetidine-3-carboxamide]",–,109 nM,0.342 nM
"CC(C)(C)CN1CCC(Oc2ccc(NC(=O)C3CN(c4cccnc4)C3)cc2)CC1 [Example 79, N-(4-{[1-(2,2-dimethylpropyl)piperidin-4-yl]oxy}phenyl)-1-(pyridin-3-yl)azetidine-3-carboxamide]",–,2690 nM,0.824 nM
"O=C(Nc1ccc(OC2CCN(C(=O)C3CCOCC3)CC2)cc1)C1CN(c2cccnn2)C1 [Example 214, 1-(pyridazin-3-yl)-N-(4-{[1-(tetrahydro-2H-pyran-4-ylcarbonyl)piperidin-4-yl]oxy}phenyl)azetidine-3-carboxamide]",–,165 nM,0.841 nM

# The next lines start with the values.
IC50 (PC3 cells),IC50 [1],IC50 (NAMPT),SMILES
2.17 nM,–,–,"O=C(Nc1ccc(CC2CCN(C(=O)c3ccco3)CC2)cc1)C1CN(c2cccnn2)C1 [Example 952, N-(4-{[1-(furan-2-ylcarbonyl)piperidin-4-yl]methyl}phenyl)-1-(pyridazin-3-yl)azetidine-3-carboxamide]"
2.76 nM,–,–,"O=C(Nc1ccc(CC2CCN(C(=O)c3ccsc3)CC2)cc1)C1CN(c2cccnn2)C1 [Example 942, 1-(pyridazin-3-yl)-N-(4-{[1-(thiophen-3-ylcarbonyl)piperidin-4-yl]methyl}phenyl)azetidine-3-carboxamide]"
2.9 nM,–,–,"Cc1ccnnc1N1CC[C@H](C(=O)Nc2ccc(C3CCN(C(=O)c4ccccc4)CC3)cc2)C1 [Example 921, (3S)—N-[4-(1-benzoylpiperidin-4-yl)phenyl]-1-(4-methylpyridazin-3-yl)pyrrolidine-3-carboxamide]"
15.4 nM,–,–,"CC(C)C(=O)N1CCC(c2ccc(NC(=O)C3CN(c4cccnn4)C3)cc2F)CC1 [Example 880, N-{3-fluoro-4-[1-(2-methylpropanoyl)piperidin-4-yl]phenyl}-1-(pyridazin-3-yl)azetidine-3-carboxamide]"
70.8 nM,–,–,"O=C(Nc1cnn(C2CCN(C(=O)c3ccccc3F)CC2)c1)C1CN(c2cccnn2)C1 [Example 971, N-{1-[1-(2-fluorobenzoyl)piperidin-4-yl]-1H-pyrazol-4-yl}-1-(pyridazin-3-yl)azetidine-3-carboxamide]"
27.1 nM,–,–,"O=C(Nc1ccc(CC2CCN(C(=O)c3cn[nH]c3)CC2)cc1)C1CN(c2cccnn2)C1 [Example 929, N-(4-{[1-(1H-pyrazol-4-ylcarbonyl)piperidin-4-yl]methyl}phenyl)-1-(pyridazin-3-yl)azetidine-3-carboxamide]"
–,1130 nM,8.94 nM,"O=C(Nc1ccc(C2CCN(C(=O)CC3CCOCC3)CC2)cc1)[C@H]1CCN(c2cccnn2)C1 [Example 312, (3S)-1-(pyridazin-3-yl)-N-{4-[1-(tetrahydro-2H-pyran-4-ylacetyl)piperidin-4-yl]phenyl}pyrrolidine-3-carboxamide]"
–,207 nM,0.554 nM,"O=C(Nc1ccc(OC2CCN(C(=O)Cc3ccc(OC(F)(F)F)cc3)CC2)cc1)C1CN(c2cccnn2)C1 [Example 238, 1-(pyridazin-3-yl)-N-{4-[(1-{[4-(trifluoromethoxy)phenyl]acetyl}piperidin-4-yl)oxy]phenyl}azetidine-3-carboxamide]"
–,380 nM,2.76 nM,"O=C(Nc1ccc(C2CCN(C(=O)CC3CCCC3)CC2)cc1)[C@H]1CCN(c2cccnc2)C1 [Example 204, (3S)—N-{4-[1-(cyclopentylacetyl)piperidin-4-yl]phenyl}-1-(pyridin-3-yl)pyrrolidine-3-carboxamide]"
–,69.9 nM,0.474 nM,"CCOCC(=O)N1CCC(c2ccc(NC(=O)C3CN(c4cccnc4)C3)cc2)CC1 [Example 131, N-{4-[1-(ethoxyacetyl)piperidin-4-yl]phenyl}-1-(pyridin-3-yl)azetidine-3-carboxamide]"
–,2270 nM,1.03 nM,"CC(C)CN1CCC(c2ccc(NC(=O)C3CN(c4cccnc4)C3)cc2)CC1 [Example 94, N-{4-[1-(2-methylpropyl)piperidin-4-yl]phenyl}-1-(pyridin-3-yl)azetidine-3-carboxamide]"
–,140 nM,104 nM,"Cc1ncccc1N1CC(C(=O)Nc2ccc(C3CCN(C(=O)CC(F)(F)F)CC3)cc2)C1 [Example 182, 1-(2-methylpyridin-3-yl)-N-{4-[1-(3,3,3-trifluoropropanoyl)piperidin-4-yl]phenyl}azetidine-3-carboxamide]"
–,28.8 nM,0.497 nM,"O=C(Nc1ccc(C2CCN(C(=O)Cc3cc(F)cc(F)c3)CC2)cc1)C1CN(c2cccnn2)C1 [Example 384, N-(4-{1-[(3,5-difluorophenyl)acetyl]piperidin-4-yl}phenyl)-1-(pyridazin-3-yl)azetidine-3-carboxamide]"
–,1410 nM,0.902 nM,"CCCC(C)CN1CCC(c2ccc(NC(=O)C3CN(c4cccnc4)C3)cc2)CC1 (stereo not shown) [Example 90, N-{4-[1-(2-methylpentyl)piperidin-4-yl]phenyl}-1-(pyridin-3-yl)azetidine-3-carboxamide]"
–,128 nM,59.7 nM,"Cc1ncccc1N1CC(C(=O)Nc2ccc(C3CCN(C(=O)CC4C[C@@H]5CC[C@H]4C5)CC3)cc2)C1 (stereo partly drawn) [Example 161, N-(4-{1-[(1S,4R)-bicyclo[2.2.1]hept-2-ylacetyl]piperidin-4-yl}phenyl)-1-(2-methylpyridin-3-yl)azetidine-3-carboxamide]"
–,23.8 nM,24.1 nM,"O=C(Nc1ccc(OC2CN(C(=O)c3ccccc3)C2)cc1)C1CN(c2ccnnc2)C1 [Example 206, N-{4-[(1-benzoylazetidin-3-yl)oxy]phenyl}-1-(pyridazin-4-yl)azetidine-3-carboxamide]"
–,3360 nM,5.3 nM,"CC(C)(C)OC(=O)N1CCC(Oc2ccc(NC(=O)[C@H]3CCN(c4cccnc4)C3)cc2)CC1 [Example 8, tert-butyl 4-[4-({[(3S)-1-(pyridin-3-yl)pyrrolidin-3-yl]carbonyl}amino)phenoxy]piperidine-1-carboxylate]"
